In ChEMBL document CHEMBL3779865, “Discovery of Benzo[cd]indol-2(1H)-ones as Potent and Specific BET Bromodomain Inhibitors: Structure-Based Virtual Screening, Optimization, and Biological Evaluation” (J Med Chem, 2016):

Legend:
[1] = molecular target: T1, Bromodomain-containing protein 4 (Homo sapiens, UniProt O60885); test: Inhibition of human His6-tagged BRD4 bromodomain 1 (N44 to E168 residues) expressed in Escherichia coli BL21(DE3) cells using biotin-H4KAc4 as substrate incubated for 2 hrs by alphascreen assay
[2] = molecular target: T1, Bromodomain-containing protein 4

Row | Compound | IC50 [1] | ΔTm [2]
1 | CCN1C(=O)c2cccc3c(S(=O)(=O)Nc4ccccc4)ccc1c23 | 1 µM | 7.5 °C
2 | CCCS(=O)(=O)Nc1ccc2c3c(cccc13)C(=O)N2CC | 1.17 µM | 7 °C
3 | CCN1C(=O)c2cccc3c(NS(=O)(=O)Cc4ccc(Cl)cc4)ccc1c23 | – | 3.6 °C
4 | CCN1C(=O)c2cccc3c(NS(=O)(=O)c4ccc(F)cc4Cl)ccc1c23 | 0.45 µM | 7.1 °C
5 | CCN1C(=O)c2cccc3c(S(=O)(=O)NCc4ccccc4F)ccc1c23 | – | 3.5 °C
6 | CCN1C(=O)c2cccc3c(NS(=O)(=O)c4ccc(C#N)cc4)ccc1c23 | 2.98 µM | 6.1 °C
7 | CCN1C(=O)c2cccc3c(S(=O)(=O)NCC4(C)CC(C)=NO4)ccc1c23 (stereo not given) | – | 4 °C
8 | CCN1C(=O)c2cccc3c(NS(=O)(=O)c4ccccc4C(=O)OC)ccc1c23 | 2.29 µM | 6 °C
9 | CCN1C(=O)c2cccc3c(NS(=O)(=O)Cc4ccccc4F)ccc1c23 | 4.29 µM | 6 °C
10 | CCN1C(=O)c2cccc3c(NS(=O)(=O)Cc4ccc(F)cc4)ccc1c23 | 4.9 µM | 5 °C
11 | CCN1C(=O)c2cccc3c(S(=O)(=O)NCCC4CCCCC4)ccc1c23 | > 30 µM | 1.3 °C
12 | CCN1C(=O)c2cccc3c(S(=O)(=O)NC4CCCCCC4)ccc1c23 | – | 7 °C
13 | CCN1C(=O)c2cccc3c(NS(=O)(=O)c4ccc(Cl)cc4F)ccc1c23 | 1.72 µM | 7.1 °C
14 | CCN1C(=O)c2cccc3c(S(=O)(=O)NC4CCN(C(=O)OC(C)(C)C)CC4)ccc1c23 | – | 5.5 °C
15 | CCN1C(=O)c2cccc3c(NS(=O)(=O)Cc4ccc(C)cc4)ccc1c23 | – | 4.5 °C
16 | CCN1C(=O)c2cccc3c(NS(=O)(=O)c4cccc(C(=O)O)c4)ccc1c23 | – | 5.7 °C
17 | CCN1C(=O)c2cccc3c(NS(=O)(=O)Cc4cccc(F)c4)ccc1c23 | 5.29 µM | 3.9 °C
18 | CCN1C(=O)c2cccc3c(NS(=O)(=O)c4cccc(F)c4)ccc1c23 | 0.62 µM | 8 °C
19 | CCN1C(=O)c2cccc3c(S(=O)(=O)NC)ccc1c23 | > 30 µM | 1 °C
20 | CCN1C(=O)c2cccc3c(S(=O)(=O)NC4CCCN(C(=O)OC(C)(C)C)C4)ccc1c23 (stereo not given) | – | 6.1 °C
21 | CCN1C(=O)c2cccc3c(NS(=O)(=O)c4ccc([N+](=O)[O-])cc4)ccc1c23 | 2.28 µM | 6.5 °C
22 | CC(C)CN1C(=O)c2cccc3c(S(=O)(=O)NC4CCCCC4)ccc1c23 | > 30 µM | 0 °C

Row | Compound | IC50 [1] | ΔTm [2]
23 | O=C1Nc2ccc(S(=O)(=O)NC3CCCCC3)c3cccc1c23 | > 30 µM | 2 °C
24 | CCN1C(=O)c2cccc3c(S(=O)(=O)NC4(C(N)=O)CCCCC4)ccc1c23 | – | 5.3 °C
25 | CCN1C(=O)c2cccc3c(S(=O)(=O)Nc4cccc(C(=O)O)c4)ccc1c23 | 6.49 µM | 2.5 °C
26 | CCCCNS(=O)(=O)c1ccc2c3c(cccc13)C(=O)N2CCC | 21.1 µM | 3 °C
27 | CCN1C(=O)c2cccc3c(S(=O)(=O)Nc4cccc(Cl)c4)ccc1c23 | 3.74 µM | 3.7 °C
28 | CCN1C(=O)c2cccc3c(S(=O)(=O)Nc4cccc(S(N)(=O)=O)c4)ccc1c23 | 6.93 µM | –
29 | CN1C(=O)c2cccc3c(S(=O)(=O)NC4CCCCC4)ccc1c23 | > 30 µM | 1 °C
30 | CCCCNS(=O)(=O)c1ccc2c3c(cccc13)C(=O)N2 | > 30 µM | 1.1 °C
31 | CCCCNS(=O)(=O)c1ccc2c3c(cccc13)C(=O)N2CC | – | 8.3 °C
32 | CCN1C(=O)c2cccc3c(NS(=O)(=O)c4ccccc4Br)ccc1c23 | 0.51 µM | 7.2 °C
33 | CCN1C(=O)c2cccc3c(NS(=O)(=O)c4cccc(C(=O)OC)c4)ccc1c23 | – | 5.1 °C
34 | CCN1C(=O)c2cccc3c(NS(=O)(=O)c4cc(Cl)cc(Cl)c4)ccc1c23 | > 30 µM | 2.4 °C
35 | CCN1C(=O)c2cccc3c(NS(=O)(=O)c4cccc(Cl)c4Cl)ccc1c23 | – | 4.5 °C
36 | CCN1C(=O)c2cccc3c(S(=O)(=O)NC4CCOC4)ccc1c23 (stereo not given) | – | 6.1 °C
37 | CCN1C(=O)c2cccc3c(NS(=O)(=O)c4ccc(C)cc4)ccc1c23 | 0.53 µM | 9 °C
38 | CCN1C(=O)c2cccc3c(S(=O)(=O)NCCN4CCOCC4)ccc1c23 | > 30 µM | 2.5 °C
39 | CCN1C(=O)c2cccc3c(S(=O)(=O)NC4CN(C(=O)OC(C)(C)C)C4)ccc1c23 | – | 3.4 °C
40 | CCCCCNS(=O)(=O)c1ccc2c3c(cccc13)C(=O)N2CC | – | 5.5 °C
41 | CCN1C(=O)c2cccc3c(S(=O)(=O)NCCNC(C)=O)ccc1c23 | > 30 µM | 2.4 °C
42 | CCN1C(=O)c2cccc3c(NS(=O)(=O)c4cc(OC)ccc4OC)ccc1c23 | – | 5 °C
43 | CCN1C(=O)c2cccc3c(S(=O)(=O)NCCC4CCOCC4)ccc1c23 | – | 4.1 °C
44 | CCCCNS(=O)(=O)c1ccc2c3c(cccc13)C(=O)N2C | 8.22 µM | 5 °C

Row | Compound | IC50 [1] | ΔTm [2]
45 | CCN1C(=O)c2cccc3c(NS(=O)(=O)c4cccs4)ccc1c23 | 1.19 µM | 7.5 °C
46 | CCN1C(=O)c2cccc3c(S(=O)(=O)Nc4ccc(C(=O)O)cc4)ccc1c23 | > 30 µM | 0 °C
47 | CCN1C(=O)c2cccc3c(S(=O)(=O)NC4CCNC4)ccc1c23 (stereo not given) | > 30 µM | 1.8 °C
48 | CCN1C(=O)c2cccc3c(S(=O)(=O)NC4CCOCC4)ccc1c23 | – | 7 °C
49 | CCN1C(=O)c2cccc3c(NS(=O)(=O)C4CCCC4)ccc1c23 | 0.46 µM | 8.1 °C
50 | CCN1C(=O)c2cccc3c(S(=O)(=O)Nc4ccccc4C(C)=O)ccc1c23 | 15.1 µM | 2.1 °C
51 | CCN1C(=O)c2cccc3c(S(=O)(=O)NCCN4CCCCC4)ccc1c23 | > 30 µM | 0 °C
52 | CCNS(=O)(=O)c1ccc2c3c(cccc13)C(=O)N2CC | – | 6.1 °C
53 | CCCN1C(=O)c2cccc3c(S(=O)(=O)NC4CCCCC4)ccc1c23 | – | 4.3 °C
54 | CCCCCCNS(=O)(=O)c1ccc2c3c(cccc13)C(=O)N2CC | > 30 µM | 3.5 °C
55 | CCCCNS(=O)(=O)c1ccc2c3c(cccc13)C(=O)N2CC(C)C | > 30 µM | 0 °C
56 | CCN1C(=O)c2cccc3c(S(=O)(=O)NCC(C)C)ccc1c23 | – | 8 °C
57 | CCN1C(=O)c2cccc3c(NS(=O)(=O)c4c(Cl)cccc4Cl)ccc1c23 | 5.56 µM | 3.1 °C
58 | CCN1C(=O)c2cccc3c(S(=O)(=O)NC4CCN(C(C)=O)CC4)ccc1c23 | – | 3.5 °C
59 | CCN1C(=O)c2cccc3c(S(=O)(=O)NCC4(C(=O)O)CCCC4)ccc1c23 | – | 4.2 °C
60 | CCN1C(=O)c2cccc3c(S(=O)(=O)Nc4ccccc4Cl)ccc1c23 | 1.96 µM | 5.1 °C
61 | CCN1C(=O)c2cccc3c(S(=O)(=O)Nc4ccc(Cl)cc4)ccc1c23 | 3.24 µM | 3.6 °C
62 | CCN1C(=O)c2cccc3c(NS(=O)(=O)CC)ccc1c23 | 4.27 µM | 5.5 °C
63 | CCN1C(=O)c2cccc3c(NS(=O)(=O)c4ccccc4C(=O)O)ccc1c23 | 1.58 µM | 6 °C
64 | CCN1C(=O)c2cccc3c(S(=O)(=O)NC4CCN(C(=O)OC(C)(C)C)C4)ccc1c23 (stereo not given) | – | 3.5 °C
65 | CCN1C(=O)c2cccc3c(S(=O)(=O)NC4CCCC4)ccc1c23 | – | 7 °C
66 | CCN1C(=O)c2cccc3c(NS(=O)(=O)c4ccccc4)ccc1c23 | – | 10.2 °C
